Measurements reported in US5719291A, “Cyclohexane derivatives” (Hoffmann-La Roche Inc., priority 1991, dated 1998).
≈ marks a conversion by molar mass, not a printed value. Where two headings read alike, the source gives them in different places.

Experiments:
Aspergillus fumigatus = assay: In vitro antifungal activity, MIC (Method A); format: cell-based; details: 1×10^5 cells/ml, 3 days, 27° C., pH 7.0
Protocol: (§1) The in vitro antifungal activities of representative compounds of the present invention were measured by determining the minimal inhibitory concentration (MIC), which is the concentration of an antifungal at which no fungal growth can be observed.
(§2) The MICs were determined by the microbroth dilution procedure according to NCCLS with the following minor modifications (Galgiani et al., Antimicrob. Agents Chemother., 33, 731 (1989). The medium was solidified with 0.2% low melting point agarose and buffered to pH 7.0 with 0.25%: K2 HPO4 in Yeast Nitrogen Base (Difco Lab.). Inoculum size was 1×10^5 cells/ml, and incubation was carried out for 3 days at 27° C. The MICs ([…]) are shown in Table 1. The reference compound is compound (IA) in U.S. Pat. No. 4,952,604. The compounds used are identified by reference to the Examples in which they were prepared.
(§3) The in vitro antifungal activities of the representative compounds of the present invention shown in Table 1 and Table 2 were measured by determining the minimal inhibitory concentrations (MIC: Method A) or 80% growth inhibition concentration (IC80 : Method B) respectively. MIC is defined as the concentration of an antifungal at which growth of fungi is not observed and IC80 is the concentration where cell turbidity measured at OD630 is reduced by 80%.
(§4) Antifungal activities were determined by either method A or B (see below) using microtest plates according NCCLS with minor modifications (Galgiani et at., Antimicrob. Agents Chemother. 33, 731 (1989)).
(§5) (Method A) The medium was solidified with 0.2% low melting point agarose and buffered to pH 7.0 with 0.25% K2 HPO4 in Yeast Nitrogen Base (Difco Lab.). Inoculum size was 1×10^5 cells/ml, and incubation was carried out for 3 days at 27° C. The reference compound is compound (IA) in U.S. Pat. No. 4,952,604.

Candida albicans [1] = assay: In vitro antifungal activity, MIC (Method A); format: cell-based; details: 1×10^5 cells/ml, 3 days, 27° C., pH 7.0
Protocol: as §1, §2, §3, §4, §5

Cryptococcus neoformans = assay: In vitro antifungal activity, MIC (Method A); format: cell-based; details: 1×10^5 cells/ml, 3 days, 27° C., pH 7.0
Protocol: as §1, §2, §3, §4, §5

[2] = Acute toxicity (LD50) by oral administration in mice; format: in vivo
C. neoformans = assay: In vitro antifungal activity, IC80 (Method B); format: cell-based; details: Cryptococcus neoformans, 1-2 days, 27° C., read-out: Antifungal activity IC80
Protocol: as §3, §4
(§6) (Method B) The medium for yeast was buffered to pH 7.0 with 0.25% K2 HPO4 in Yeast Nitrogen Base (Difco Lab.). For the filamentous fungi, 0.2% of low melting point agar was supplemented to the above medium. Inoculum size was 1×10^4 cells/ml, and incubation was carried out for 1-2 days at 27° C. Fluconazole (Pfizer) was used as reference.

Candida albicans [3] = assay: In vitro antifungal activity, IC80 (Method B); format: cell-based; details: 1-2 days, 27° C., read-out: Antifungal activity IC80
Protocol: as §3, §4, §6

A. fumigatus = assay: In vitro antifungal activity, IC80 (Method B); format: cell-based; details: Aspergillus fumigatus, 1×10^4 cells/ml, 1-2 days, 27° C., 0.2% agar, read-out: Antifungal activity IC80
Protocol: as §3, §4, §6

[4] = pH 7, C. neoformans CY1057, 1×10^4 cells/ml
[5] = pH 7, C. neoformans CY1059, 1×10^4 cells/ml
[6] = pH 7, Candida albicans CY1002, 1×10^4 cells/ml
[7] = pH 7, Candida albicans CY1005, 1×10^4 cells/ml
[8] = pH 7, Candida albicans CY3003, 1×10^4 cells/ml

Question: What does the source list for “(2S,3R,4S,5S)-5-methyl-2-[(E)-1-nonenyl]-4-propoxy-tetrahydro-2H-pyran-3-ylglycinate trifluoroacetic acid salt [Example 21]”?
Answer: Antifungal activity MIC (Aspergillus fumigatus; Aspergillus fumigatus CF1003): 12.5 µg/mL; Antifungal activity MIC (Aspergillus fumigatus; Aspergillus fumigatus CF1004): 6.25 µg/mL; Antifungal activity MIC (Aspergillus fumigatus; Aspergillus fumigatus CF1023): 12.5 µg/mL; Antifungal activity MIC (Candida albicans [1]; Candida albicans CY1002): 100 µg/mL; Antifungal activity MIC (Candida albicans [1]; Candida albicans CY1005): 50 µg/mL; Antifungal activity MIC (Candida albicans [1]; Candida albicans CY3003): 100 µg/mL; Antifungal activity MIC (Cryptococcus neoformans; Cryptococcus neoformans CY1057): 12.5 µg/mL; Antifungal activity MIC (Cryptococcus neoformans; Cryptococcus neoformans CY1059): 12.5 µg/mL; Antifungal activity MIC (Cryptococcus neoformans; Cryptococcus neoformans CY1061): 25 µg/mL; LD50 [2]: more than 500 mg/kg

Question: Which IC80 (C. neoformans; [4]) does the source give for `CO[C@@H]1[C@@H](Cn2cncn2)[C@H](CCc2ccc3ccccc3c2)CCC1(C)C` [Example 75, 1-[[(1R,2R,6R)-2-methoxy-3,3-dimethyl-6-(2-b-naphthylethyl)cyclohexyl]methyl]-1H,1,1,4-triazole] here?
Answer: 0.19 µg/mL (≈ 0.503 µM)

Question: And the IC80 (C. neoformans; [5])?
Answer: 1.3 µg/mL (≈ 3.44 µM)

Question: What about the IC80 (Candida albicans [3]; [6]) of the same molecule?
Answer: 0.18 µg/mL (≈ 0.477 µM)

Question: What about the IC80 (Candida albicans [3]; [7]) of the same molecule?
Answer: 0.2 µg/mL (≈ 0.53 µM)

Question: What about the IC80 (Candida albicans [3]; [8]) of the same molecule?
Answer: 0.34 µg/mL (≈ 0.901 µM)

Question: And the IC80 (A. fumigatus; A. fumigatus CF1003)?
Answer: > 200 µg/mL

Question: What about the IC80 (A. fumigatus; A. fumigatus CF1004) of the same molecule?
Answer: > 200 µg/mL

Question: For `CO[C@@H]1[C@@H](Cn2cncn2)[C@H](CCc2ccc(C(F)(F)F)cc2)CCC1(C)C` [Example 77], which IC80 (C. neoformans; [4]) is on record?
Answer: 0.39 µg/mL (≈ 0.986 µM)

Question: And the IC80 (C. neoformans; [5])?
Answer: 3.2 µg/mL (≈ 8.09 µM)

Question: And the IC80 (Candida albicans [3]; [6])?
Answer: 0.16 µg/mL (≈ 0.405 µM)

Question: What about the IC80 (Candida albicans [3]; [7]) of the same molecule?
Answer: 0.18 µg/mL (≈ 0.455 µM)

Question: What about the IC80 (Candida albicans [3]; [8]) of the same molecule?
Answer: 0.093 µg/mL (≈ 0.235 µM)

Question: And the IC80 (A. fumigatus; A. fumigatus CF1003)?
Answer: > 200 µg/mL

Question: What about the IC80 (A. fumigatus; A. fumigatus CF1004) of the same molecule?
Answer: > 200 µg/mL

Question: With `CCCCCCC/C=C/[C@@H]1OC[C@H](C)C=C1Cn1ccnc1` [Example 60, 1-[[(2S,5R)-5,6-dihydro-5-methyl-2-[(E)-1-nonenyl]-2H-pyran-3-yl]methyl]-1H-imidazole] as the molecule, how does the LD50 ([2]; mouse, in vivo, read-out: LD50) read?
Answer: > 500 mg/kg

Question: With `CO[C@@H]1[C@@H](Cn2cncn2)[C@H](CCc2ccc(C)cc2)CCC1(C)C` [Example 74] as the molecule, how does the IC80 (C. neoformans; [4]) read?
Answer: 0.46 µg/mL (≈ 1.35 µM)

Question: What about the IC80 (C. neoformans; [5]) of the same molecule?
Answer: 3.8 µg/mL (≈ 11.1 µM)

Question: And the IC80 (Candida albicans [3]; [6])?
Answer: 0.076 µg/mL (≈ 0.223 µM)

Question: And the IC80 (Candida albicans [3]; [7])?
Answer: 0.093 µg/mL (≈ 0.272 µM)

Question: What about the IC80 (Candida albicans [3]; [8]) of the same molecule?
Answer: 0.038 µg/mL (≈ 0.111 µM)

Question: And the IC80 (A. fumigatus; A. fumigatus CF1003)?
Answer: 20 µg/mL (≈ 58.6 µM)

Question: What about the IC80 (A. fumigatus; A. fumigatus CF1004) of the same molecule?
Answer: 24 µg/mL (≈ 70.3 µM)

Question: With `CCc1ccc(OC[C@@H]2CCC(C)(C)[C@H](OC)[C@H]2Cn2cncn2)cc1` [Example 83, 1-[[(1R,2R,6R)-2-methoxy-3,3-dimethyl-6-(4-ethylphenoxy)methyl]methyl]-1H,1,2,4-triazole] as the molecule, how does the IC80 (C. neoformans; [4]) read?
Answer: 0.21 µg/mL (≈ 0.587 µM)

Question: What about the IC80 (C. neoformans; [5]) of the same molecule?
Answer: 0.19 µg/mL (≈ 0.531 µM)

Question: And the IC80 (Candida albicans [3]; [6])?
Answer: 0.31 µg/mL (≈ 0.867 µM)

Question: And the IC80 (Candida albicans [3]; [7])?
Answer: 0.24 µg/mL (≈ 0.671 µM)

Question: And the IC80 (Candida albicans [3]; [8])?
Answer: 0.59 µg/mL (≈ 1.65 µM)

Question: What about the IC80 (A. fumigatus; A. fumigatus CF1003) of the same molecule?
Answer: > 200 µg/mL

Question: And the IC80 (A. fumigatus; A. fumigatus CF1004)?
Answer: > 200 µg/mL

Question: What does the source list for `CO[C@@H]1[C@@H](Cn2cncn2)[C@H](CSc2ccc(Cl)cc2)CCC1(C)C` [Example 73, 1-[[(1R,2R,6R)-6-[(4-chlorophenylthio)methyl]-2-methoxy-3,3-dimethylcyclohexyl]methyl]-1H-1,2,4-triazole]?
Answer: IC80 (C. neoformans; [4]): 5.8 µg/mL (≈ 15.3 µM); IC80 (C. neoformans; [5]): 6.1 µg/mL (≈ 16.1 µM); IC80 (Candida albicans [3]; [6]): 0.008 µg/mL (≈ 0.0211 µM); IC80 (Candida albicans [3]; [7]): 0.011 µg/mL (≈ 0.029 µM); IC80 (Candida albicans [3]; [8]): 0.02 µg/mL (≈ 0.0526 µM); IC80 (A. fumigatus; A. fumigatus CF1003): 23 µg/mL (≈ 60.5 µM); IC80 (A. fumigatus; A. fumigatus CF1004): 23 µg/mL (≈ 60.5 µM)

Question: For `COc1ccc(CC[C@@H]2CCC(C)(C)[C@H](OC)[C@H]2Cn2cncn2)cc1` [Example 79, 1-[[(1R,2R,6R)-2-methoxy-6-(p-methoxyphenethyl)-3,3-dimethylcyclohexyl]methyl]-1H,1,2,4-triazole], which IC80 (C. neoformans; [4]) is on record?
Answer: 0.86 µg/mL (≈ 2.41 µM)

Question: What about the IC80 (C. neoformans; [5]) of the same molecule?
Answer: 4.7 µg/mL (≈ 13.1 µM)

Question: And the IC80 (Candida albicans [3]; [6])?
Answer: 0.023 µg/mL (≈ 0.0643 µM)

Question: And the IC80 (Candida albicans [3]; [7])?
Answer: 0.024 µg/mL (≈ 0.0671 µM)

Question: What about the IC80 (Candida albicans [3]; [8]) of the same molecule?
Answer: 0.02 µg/mL (≈ 0.0559 µM)

Question: What about the IC80 (A. fumigatus; A. fumigatus CF1003) of the same molecule?
Answer: > 200 µg/mL

Question: What about the IC80 (A. fumigatus; A. fumigatus CF1004) of the same molecule?
Answer: > 200 µg/mL
